Paper PMC9296478, “Discovery of a lectin domain that regulates enzyme activity in mouse N-acetylglucosaminyltransferase-IVa (MGAT4A)” (Communications Biology, 2022)

Assays:
[1] = target: T1, soluble wild-type GnT-IVa enzyme (Mus musculus, UniProt Q812G0); assay: HPLC assay of PA-labelled product; format: biochemical; details: 10 mM MnCl2, 125 mM MES pH 6.25, 200 mM GlcNAc, 37 °C
T1 construct: gene Mgat4a; luminal region, residues 60-526 (catalytic plus lectin domain), N-terminal His tag, secreted from COS7 cells (pcDNA-IH), Ni2+ column purified from medium
T1 sequence (Q812G0 60-526 isoform Q812G0-2 D445A): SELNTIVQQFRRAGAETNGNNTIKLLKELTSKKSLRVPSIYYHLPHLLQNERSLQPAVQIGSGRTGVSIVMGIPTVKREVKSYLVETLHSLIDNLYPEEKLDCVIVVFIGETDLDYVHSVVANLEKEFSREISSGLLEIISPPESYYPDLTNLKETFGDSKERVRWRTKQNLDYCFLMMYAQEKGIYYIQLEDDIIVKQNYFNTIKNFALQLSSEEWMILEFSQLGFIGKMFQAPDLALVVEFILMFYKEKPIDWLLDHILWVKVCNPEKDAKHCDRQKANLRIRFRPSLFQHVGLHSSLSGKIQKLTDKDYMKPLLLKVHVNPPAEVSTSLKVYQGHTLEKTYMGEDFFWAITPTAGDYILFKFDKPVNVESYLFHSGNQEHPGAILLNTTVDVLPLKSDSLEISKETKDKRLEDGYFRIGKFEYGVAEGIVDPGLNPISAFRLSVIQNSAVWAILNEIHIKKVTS

GnT-IVa lectin domain = target: T2, GnT-IVa lectin domain (Mus musculus, UniProt Q812G0); assay: 1H-15N HSQC NMR titration (peak A); format: binding; details: 20 mM sodium phosphate pH 6.0, 298 K, 0.4 mM protein; read-out: dissociation constant
T2 construct: gene Mgat4a; C-terminal lectin domain, residues 382-526, expressed in E. coli BL21(DE3) RIPL as GST fusion (pGEX6P-1), GST cleaved by PreScission protease; 15N-labelled for NMR
T2 sequence (Q812G0 382-526 isoform Q812G0-2): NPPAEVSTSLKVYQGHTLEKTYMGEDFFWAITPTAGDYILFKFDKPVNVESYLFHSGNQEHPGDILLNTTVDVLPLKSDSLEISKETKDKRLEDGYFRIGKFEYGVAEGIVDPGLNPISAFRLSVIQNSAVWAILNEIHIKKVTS

Row | Compound | Kd (GnT-IVa lectin domain) | further results
1 | CC(=O)N[C@H]1[C@@H](OP(=O)(O)OP(=O)(O)OC[C@H]2O[C@@H](n3ccc(=O)[nH]c3=O)[C@H](O)[C@@H]2O)O[C@H](CO)[C@@H](O)[C@@H]1O [UDP-GlcNAc] |  | Km ([1]; 10 μM GnGnbi-PA, 0.625-20 mM UDP-GlcNAc): 3950 µM
2 | CC(=O)N[C@H]1[C@H](O[C@@H]([C@H](O)[C@H](CNc2ccccn2)NC(C)=O)[C@H](O)CO)O[C@H](CO)[C@@H](O[C@@H]2O[C@H](CO[C@H]3O[C@H](CO)[C@@H](O)[C@H](O)[C@@H]3O[C@@H]3O[C@H](CO)[C@@H](O)[C@H](O)[C@H]3NC(C)=O)[C@@H](O)[C@H](O[C@H]3O[C@H](CO)[C@@H](O)[C@H](O)[C@@H]3O[C@@H]3O[C@H](CO)[C@@H](O)[C@H](O)[C@H]3NC(C)=O)[C@@H]2O)[C@@H]1O [GnGnbi-PA] |  | Km ([1]; 20 mM UDP-GlcNAc, 32-640 μM acceptor, labelled compound): 1250 µM
3 | CC(=O)N[C@H]1C(O)O[C@H](CO)[C@@H](O)[C@@H]1O (stereo partly shown) [GlcNAc] | 3100 µM | 
4 | CC(=O)N[C@H]1[C@H](O[C@@H]2C(O)O[C@H](CO)[C@@H](O)[C@@H]2O)O[C@H](CO)[C@@H](O)[C@@H]1O (stereo partly shown) [GlcNAcβ1-2Man] | 320 µM | 
